Like-named read-outs stand apart in the source and are kept apart here.
Tests used:
[1] = tested on: generation of TXB2 in the whole blood; test: whole blood assay, yield of TXB2 in coagulated blood (ELISA); assay type: cell-based; conditions: Homo sapiens, read-out: inhibition IC50 onto generation of TXB2 in the whole blood test
Experimental: (§1) Deuterated benzopyran compounds of different concentrations were uniformly mixed with ovine COX-1 and human recombinant COX-2 for incubation for 15 min, respectively, and then the system was added with Heme and ADHP for incubation for another 2 min and finally added with substrate arachidonic acid. The light emission intensity of the reaction product at 595 nm was immediately detected by a microplate reader under exciting light at 530 nm. […] In the whole blood assay, venous blood of healthy donors was collected with a non-anticoagulation tube and a heparin tube, deuterated benzopyran compounds of different concentrations (1×10^−8 to 1×10^−4) were mixed with the blood in the non-anticoagulation tube, the supernatant was collected after the blood was coagulated and then measured by ELISA in terms of the yield of TXB2; and deuterated benzopyran compounds of different concentrations (1×10^−8 to 1×10^−4) were mixed with the blood in the heparin tube, the mixture was added with lipopolysaccharide until the final concentration was 100 μg/mL, mixed uniformly and then kept stand overnight at 37° C., the supernatant was collected by centrifugation and then measured by ELISA in terms of the yield of PGE2. […]

ovine COX-1 = molecular target: T1, ovine COX-1 (Ovis aries, UniProt P05979); test: COX-1 enzyme inhibition (ADHP fluorescence); assay type: biochemical
T1 sequence (P05979 25-600): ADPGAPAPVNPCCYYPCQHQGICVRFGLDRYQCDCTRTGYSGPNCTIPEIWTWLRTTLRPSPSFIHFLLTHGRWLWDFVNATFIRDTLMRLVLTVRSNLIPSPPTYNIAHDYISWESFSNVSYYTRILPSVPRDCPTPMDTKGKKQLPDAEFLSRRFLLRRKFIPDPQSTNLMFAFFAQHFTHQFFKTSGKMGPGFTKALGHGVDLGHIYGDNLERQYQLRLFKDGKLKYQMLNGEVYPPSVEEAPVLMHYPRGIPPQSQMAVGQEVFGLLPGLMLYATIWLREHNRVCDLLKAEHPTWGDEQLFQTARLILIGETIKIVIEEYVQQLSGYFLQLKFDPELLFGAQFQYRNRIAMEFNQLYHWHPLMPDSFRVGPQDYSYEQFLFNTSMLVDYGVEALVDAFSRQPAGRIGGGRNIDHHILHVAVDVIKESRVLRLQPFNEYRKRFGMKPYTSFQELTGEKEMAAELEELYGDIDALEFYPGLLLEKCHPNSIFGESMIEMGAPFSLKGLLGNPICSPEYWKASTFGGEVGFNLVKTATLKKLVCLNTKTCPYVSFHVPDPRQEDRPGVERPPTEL
Experimental: as §1

[2] = tested on: generation of PGE2 in the whole blood; test: whole blood assay, lipopolysaccharide-induced yield of PGE2 in heparin blood (ELISA); assay type: cell-based, human; conditions: for IC50: Homo sapiens, read-out: inhibition IC50 onto generation of PGE2 in the whole blood test
Experimental: (§2) Deuterated benzopyran compounds of different concentrations were uniformly mixed with ovine COX-1 and human recombinant COX-2 for incubation for 15 min, respectively, and then the system was added with Heme and ADHP for incubation for another 2 min and finally added with substrate arachidonic acid. The light emission intensity of the reaction product at 595 nm was immediately detected by a microplate reader under exciting light at 530 nm. […] In the whole blood assay, venous blood of healthy donors was collected with a non-anticoagulation tube and a heparin tube, deuterated benzopyran compounds of different concentrations (1×10^−8 to 1×10^−4) were mixed with the blood in the non-anticoagulation tube, the supernatant was collected after the blood was coagulated and then measured by ELISA in terms of the yield of TXB2; and deuterated benzopyran compounds of different concentrations (1×10^−8 to 1×10^−4) were mixed with the blood in the heparin tube, the mixture was added with lipopolysaccharide until the final concentration was 100 μg/mL, mixed uniformly and then kept stand overnight at 37° C., the supernatant was collected by centrifugation and then measured by ELISA in terms of the yield of PGE2.

[3] = Test on pharmacokinetics and bioavailability of rats; assay type: in vivo, SD rats; conditions: for Vd / BA / AUC / Cmax / Tmax / half-life / t½: male SD rats; for BA: oral, calculated according AUC data; for AUC / Cmax / Tmax / half-life / t½: oral administration; for half-life: read-out: t½ (converted)
Experimental: The blood samples employ acetonitrile to precipitate protein, 16000 rpm*30 min, and the supernatant is used for LC/MS analysis. Data is performed with parameter fitting by DAS2.0, and the bioavailability of oral administration of compounds is calculated according AUC data.

human recombinant COX-2 = molecular target: T2, human recombinant COX-2 (Homo sapiens, UniProt P35354); test: COX-2 enzyme inhibition (ADHP fluorescence); assay type: biochemical; conditions: for IC50: human recombinant COX-2, 15 min incubation
T2 sequence (P35354 18-604): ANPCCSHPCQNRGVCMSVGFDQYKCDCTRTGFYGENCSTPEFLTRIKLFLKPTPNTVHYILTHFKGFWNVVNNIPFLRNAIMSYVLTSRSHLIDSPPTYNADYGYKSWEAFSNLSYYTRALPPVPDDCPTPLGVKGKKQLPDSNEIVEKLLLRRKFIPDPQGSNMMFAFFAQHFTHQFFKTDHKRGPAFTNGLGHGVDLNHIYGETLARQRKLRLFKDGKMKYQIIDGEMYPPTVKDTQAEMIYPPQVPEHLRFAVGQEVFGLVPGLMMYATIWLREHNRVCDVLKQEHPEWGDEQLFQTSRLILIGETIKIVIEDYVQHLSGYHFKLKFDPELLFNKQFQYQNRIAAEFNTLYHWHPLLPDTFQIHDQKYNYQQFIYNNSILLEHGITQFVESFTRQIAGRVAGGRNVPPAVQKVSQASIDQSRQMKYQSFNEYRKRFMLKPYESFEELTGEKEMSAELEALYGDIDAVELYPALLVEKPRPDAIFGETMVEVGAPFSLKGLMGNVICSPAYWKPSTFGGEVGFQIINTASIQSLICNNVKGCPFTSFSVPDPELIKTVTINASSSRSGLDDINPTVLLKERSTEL
Experimental: as §2

[4] = ovine COX-1, 15 min incubation, read-out: Inhibition IC50 COX-1
[5] = rat, plasma, single dose 25 mg/kg
[6] = rat, plasma, single dose 25 mg/kg, read-out: Cmax
[7] = rat, plasma, single dose 25 mg/kg, read-out: Tmax
[8] = blood of healthy donors, non-anticoagulation tube
[9] = blood of healthy donors, heparin tube, lipopolysaccharide 100 μg/mL, overnight at 37° C.
[10] = rat, plasma, single dose 10 mg/kg
[11] = rat, plasma, single dose 2.5 mg/kg
[12] = rat, plasma, single dose 2.5 mg/kg, read-out: Cmax
[13] = rat, plasma, single dose 2.5 mg/kg, read-out: Tmax

| Compound | IC50 [1] [µM] | IC50 (ovine COX-1; [4]) [µM] | IC50 [2] [µM] | IC50 [1, 8] [µM] | IC50 [2, 9] [µM] | Vd ([3]; single dose 10 mg/kg) [L/kg] | Cmax ([3]; single dose 10 mg/kg) [ng/mL] | Tmax ([3]; single dose 10 mg/kg) [h] | t½ ([3]; single dose 10 mg/kg) [h] | BA ([3]; single dose 10 mg/kg) [%] | AUC [3, 10] [ng·h/mL] | IC50 (human recombinant COX-2) [µM] | BA ([3]; single dose 2.5 mg/kg) [%] | AUC [3, 11] [ng·h/mL] | Vd ([3]; single dose 2.5 mg/kg) [L/kg] | Cmax [3, 12] [ng/mL] | Tmax [3, 13] [h] | half-life [3, 11] [h] | further results |
| --- | --- | --- | --- | --- | --- | --- | --- | --- | --- | --- | --- | --- | --- | --- | --- | --- | --- | --- | --- |
| [2H]C([2H])([2H])c1ccc2c(c1)C=C(C(=O)O)C(C(F)(F)F)O2 (stereo not drawn) [GIBH-1004, 6-(methyl-D3)-2-(trifluoromethyl)-2H-chromence-3-carboxylic acid] | > 100 | > 100 | 67.5 | – | – | – | – | – | – | – | – | – | – | – | – | – | – | – | Vd ([3]; single dose 25 mg/kg): 0.58 L/kg; BA ([3]; single dose 25 mg/kg): 46.1%; AUC [3, 5]: 181000 ng·h/mL; Cmax [3, 6]: 34200 ng/mL; Tmax [3, 7]: 0.563 h; half-life [3, 5]: 2.88 h |
| [2H]C([2H])([2H])C([2H])([2H])c1cc(OC(F)(F)F)cc2c1OC(C(F)(F)F)C(C(=O)O)=C2 (stereo not drawn) [GIBH-1006, 8-(ethyl-D5)-6-(trifluoromethoxy)-2-(trifluoromethyl)-2H-chromene-3-carboxylic acid] | – | > 100 | – | 20.5 | 79.5 | – | – | – | – | – | – | – | – | – | – | – | – | – | Vd ([3]; single dose 25 mg/kg): 0.68 L/kg; BA ([3]; single dose 25 mg/kg): 78.6%; AUC value compared among the compounds (in words) ([3]; rat PK, doses differ between compounds): highest; AUC [3, 5]: 511000 ng·h/mL; Cmax [3, 6]: 29500 ng/mL; Tmax [3, 7]: 1.62 h; half-life [3, 5]: 9.54 h |
| [2H]C([2H])([2H])c1cc2c(c(C([2H])([2H])[2H])c1Cl)C=C(C(=O)O)C(C(F)(F)F)O2 (stereo not drawn) [GIBH-1008, 6-chloro-5,7-(dimethyl-D6)-2-(trifluoromethyl)-2H-chromene-3-carboxylic acid] | – | > 100 | – | 65.1 | 78.5 | 0.26 | 20900 | 1.167 | 2.1 | 92.8 | 118000 | – | – | – | – | – | – | – | IC50 (ovine COX-1; read-out: IC50 value of COX-1): > 100 µM |
| [2H]C([2H])([2H])c1cc2c(c(C([2H])([2H])[2H])c1Br)C=C(C(=O)O)C(C(F)(F)F)O2 (stereo not drawn) [GIBH-1010, 6-bromo-5,7-(dimethyl-D6)-2-(trifluoromethyl)-2H-chromene-3-carboxylic acid] | – | > 100 | – | 38.9 | > 100 | 0.57 | 21399 | 0.5 | 3.35 | 111.8 | 84800 | 0.0671 | – | – | – | – | – | – | – |
| [2H]C([2H])([2H])c1cc(Cl)cc2c1OC(C(F)(F)F)C(C(=O)O)=C2 (stereo not drawn) [GIBH-1012, 6-chloro-8-(methyl-D3)-2-(trifluoromethyl)-2H-chromene-3-carboxylic acid] | > 100 | > 100 | > 100 | – | – | – | – | – | – | – | – | – | 110.7 | 38900 | – | – | – | – | Cmax ([3]; single dose 2.5 mg/kg): 8945 ng/mL; Tmax ([3]; single dose 2.5 mg/kg): 0.5 h; t½ ([3]; single dose 2.5 mg/kg): 3.37 h |
| [2H]C([2H])([2H])c1cc(Br)cc2c1OC(C(F)(F)F)C(C(=O)O)=C2 (stereo not drawn) [GIBH-1014, 6-bromo-8-(methyl-D3)-2-(trifluoromethyl)-2H-chromene-3-carboxylic acid] | > 100 | 31.8 | 45.2 | – | – | 0.53 | 35300 | 0.417 | 5.2 | 107.4 | 143000 | 0.0368 | – | – | – | – | – | – | selectivity to the inhibition of COX-2 enzyme of blood cells ([2]; human whole blood COX enzyme activity test): better selectivity; ratio of the selectivity to COX-2 to the selectivity to COX-1 (human recombinant COX-2; from enzyme IC50 values COX-1/COX-2): 862 |
| [2H]C([2H])([2H])c1cc2c(c(C([2H])([2H])[2H])c1)OC(C(F)(F)F)C(C(=O)O)=C2 (stereo not drawn) [GIBH-1016, 6,8-(dimethyl-D6)-2-(trifluoromethyl)-2H-chromene-3-carboxylic acid] | > 100 | – | > 100 | – | – | – | – | – | – | – | – | – | 65.1 | 4330 | 0.94 | 4400 | 0.187 | 1.04 | IC50 (ovine COX-1): > 100 µM |
| [2H]C([2H])([2H])c1cc(Cl)c2c(c1)C=C(C(=O)O)C(C(F)(F)F)O2 (stereo not drawn) [GIBH-1018, 8-chloro-6-(methyl-D3)-2-(trifluoromethyl)-2H-chromene-3-carboxylic acid] | > 100 | > 100 | 78.9 | – | – | – | – | – | – | – | – | – | 90.6 | 28300 | 0.31 | 11800 | 0.271 | 2.43 | – |
| [2H]C([2H])([2H])c1c(Br)c2c(c(C([2H])([2H])[2H])c1Br)C=C(C(=O)O)C(C(F)(F)F)O2 (stereo not drawn) [GIBH-1051, 6,8-dibromo-5,7-(dimethyl-D6)-2-(trifluoromethyl)-2H-chromene-3-carboxylic acid] | 70.6 | 5.45 | > 100 | – | – | – | – | – | – | – | – | 0.0841 | 63.7 | 13000 | 1.004 | 4480 | 0.688 | 1.76 | – |

— patent US9371305B2, “Deuterated benzopyran compounds and application thereof” (Guangzhou Institutes of Biomedicine And Health, Chinese …, priority 2012, dated 2016)
